# Source: publication PMC8397403, “Physiologically Based Pharmacokinetic Modeling of Transporter-Mediated Hepatic Disposition of Imaging Biomarker Gadoxetate in Rats” (Molecular Pharmaceutics, 2021)
# Marks after values point to notes of the source that are not given here.
# Experiment: Bottom-up IVIVE of gadoxetate transporter kinetic data / PBPK model
# Design: species or system rat
# Method: IVIVE of gadoxetate CLactive,u and CLpassive,u was performed by scaling these parameters to in vivo values (CLactive,u,in vivo and CLpassive,u,in vivo; mL/min/kg body weight) using a hepatocellularity of 120 × 10^6 cells/g liver,[34] and a liver weight (wliver) of 40 g/kg body weight,[38] as in eq 3. [drawing 3] 3
# A reduced PBPK model was developed to describe the PK of gadoxetate in rats; a permeability-limited liver model was implemented capturing relevant processes, as done previously.[6],[41] The compartments represent the blood, spleen, splanchnic organs, liver interstitial space, hepatocytes, and the rest of the body (ROB) vascular and extravascular spaces. The ROB compartment includes muscles, skin, bones, and fat among others. Details of model equations and physiological parameters values are reported in the Supporting Information, Sections 2, 3, and 5.
# Standard kinetic models used for MRI contrast agents generally describe the organs by using three compartments: plasma, interstitial, and intracellular spaces.[12],[42],[43] Gadoxetate distributes only in the extracellular space of all the organs; liver is the exception, where gadoxetate undergoes active uptake into the hepatocytes.[44] Therefore, in the gadoxetate PBPK model, the volume of all the compartments, except the blood and the liver, corresponded to the organ extracellular space, that in turn was considered to be composed of the blood within the organ and the interstitial space. For highly vascularized and perfused organs with fenestrated capillaries (e.g., liver), the exchange between the plasma and the interstitial space is generally considered to be fast.[12],[19] Therefore, for liver, spleen, and splanchnic compartments, the extracellular volumes were considered to be the sum of the blood within the organ and the interstitial space volumes. […] A permeability limitation between the vascular and interstitial space was, therefore, assumed for the ROB compartment, as shown in eq 5. [drawing 5] 5 cb, crob,v and crob,ev [μmol/L] are the gadoxetate concentration in blood and ROB vascular and extravascular compartments; Vrob,v and Vrob,ev [L] are the ROB vascular and extravascular compartment volumes, respectively; and PS [L/h] is the permeability surface product.
# To describe the gadoxetate-active uptake into the hepatocytes, a permeability-limited liver model was used, as shown in eq 6. [drawing 6] 6 inputsplan [μmol/h] represent the venous input from the splanchnic organs, while inputart [μmol/h] is the input from the hepatic artery; cliv,extr and cliv,cell [μmol/L] are the drug concentrations in the extracellular liver (tissue blood plus interstitial space) and in the hepatocytes, respectively; Vliv,extr and Vliv,int [L] are the extracellular and hepatocytes liver volumes; Qh [L/h] is the liver blood flow; Kliv,extr-b is the extracellular liver to blood partition coefficient; CLactive and CLpassive [L/h] are the active and passive clearances across the hepatocytes cell membrane; CLbiliary [L/h] is the clearance representing the excretion from the hepatocytes into the bile; and fu,liv,cell is the gadoxetate fraction unbound in the hepatocytes (obtained from the in vitro generated data fu,cell). Recent PBPK studies of hepatic transporter substrates have used a 5-compartment liver model[45] and the use of this particular liver model was also explored in the current PBPK modeling.
# All the parameters were initially obtained using literature values and in vitro experiments. Prospective transporter clearance IVIVE was performed with the aim of predicting the gadoxetate ΔR1 in blood, spleen, and liver after administration of gadoxetate alone (in the absence of an inhibitor). CLactive, CLpassive, and fu,liv,cell were obtained from the in vitro experimental values obtained in this study, as detailed in the section “Data Analysis and Quantitative Translation”. CLr was fixed to a literature value, as in Table 3. […]
# [1] = scaled from in vitro, 120 × 10^6 cells/g liver, 40 g liver/kg
smiles,measurement,setting,value
CCOc1ccc(C[C@@H](CN(CCN(CC(=O)[O-])CC(=O)[O-])CC(=O)[O-])N(CC(=O)[O-])CC(=O)[O-])cc1.[Gd+3].[H+].[H+] [gadoxetate],"CLbiliary, bottom-up scaled value","Monte Carlo mean, value assumed equal to CLpassive","0.014 ^a^, ^c L/h"
same,"CLactive, bottom-up scaled value","mean value calculated from the Monte Carlo analysis, rat 0.25 kg",0.23 ^a L/h
same,"PS, bottom-up scaled value","permeability surface product, Monte Carlo mean, value assumed equal to CLpassive","0.014 ^a^, ^c L/h"
same,"predicted in vivo active uptake clearance (CLactive,u,in vivo)",[1],14.7 mL/min/kg body weight
same,"predicted in vivo passive clearance (CLpassive,u,in vivo)",[1],0.93 mL/min/kg body weight
same,CLpassive,"scaled from the mean in vitro value in Table 2, fixed in PBPK model",0.014 L/h
